Assay results taken from the NIST ThermoML archive (doi:10.1016/j.fluid.2016.02.013).

Details: 101.33 kPa, Liquid; for viscosity: Concentric cylinders viscometry; for mass density: Vibrating tube method; for electrical conductivity: impedance analyzer

CCCC[P+](CCCC)(CCCC)CCCC.O=C([O-])[C@@H]1CCCN1 [tetrabutylphosphonium L-prolinate]
Details | electrical conductivity [S/m] | mass density [kg/m3] | viscosity [mPa·s]
298.15 K | 0.00727 | 971.1 | 1025
303.15 K | 0.0105 | 968.2 | 692.8
313.15 K | 0.0201 | 962.38 | 343.6
323.15 K | 0.0354 | 956.46 | 186.1
333.15 K | 0.0584 | 950.54 | 108.7
343.15 K | 0.0907 | 944.63 | 67.74
353.15 K | 0.134 | 938.75 | 44.5
363.15 K | – | 932.9 | 30.61
